Assay results as given in US20090233868A1, “Small antiviral peptides against hepatitis C virus” (priority 2005, published 2009).
Where no end group is shown, it is not given here.

Legend:
HCV IRES RNA = assay: UV-crosslinking assay with [32P] labeled HCV IRES RNA; format: binding, hepatitis C virus; conditions: 2 μM and 4 μM peptide; FIG. 6A
Huh7 cells = assay: Internalization of fluorescein labeled hexa-arginine-tagged peptides; format: cell-based; conditions: fluorescein tagged peptide, 3 hours incubation; FIG. 6B
[1] = system: HCV IRES mediated translation; assay: HCV bicistronic construct luciferase assay in Huh7 cells with arginine-tagged peptides; format: cell-based, hepatitis C virus; conditions: 2 μM peptide, 4 hours or 6 hours
[2] = system: HCV monocistronic replicon; assay: HCV negative strand real time PCR in Huh7 cells harboring HCV monocistronic replicon; format: cell-based, hepatitis C virus
[3] = system: HCV IRES mediated translation; assay: In vitro translation of uncapped HCV-IRES-Luc monocistronic RNA in rabbit reticulocyte lysate; format: biochemical, hepatitis C virus; conditions: RRL; for IC50: uncapped HCV IRES-Luc RNA, data not shown, read-out: IC50 for inhibition of HCV IRES mediated translation
[4] = system: cap-dependent translation; assay: In vitro translation of capped Luciferase RNA in RRL; format: biochemical, rabbit; conditions: 15, 30, 60 μM peptide; FIG. 5C
[5] = system: IRES mediated translation of hepatitis A virus; format: biochemical
[6] = system: Polio virus IRES function; format: biochemical; conditions: at higher concentration (15, 30, 60 μM tested); FIG. 5E
[7] = system: HCV IRES mediated translation; assay: In vitro translation of capped HCV bicistronic RNA in RRL; conditions: 15, 30, 60 μM peptide; FIG. 5D

Row | Substance | RNA binding activity of hexa-arginine tagged peptides (UV cross-linking) (HCV IRES RNA) | Internalization into Huh7 cells (fluorescence microscope) (Huh7 cells) | Inhibition of HCV IRES mediated translation over the control in Huh7 cells [1] | Decrease in levels of HCV negative strand RNAs compared to untreated cells ([2]; 4 μM peptide added at 0 and 12th hour, RNA at 24th hour) [%] | Inhibitory activity on HCV negative strand synthesis ([2]; 10 μM peptide, data not shown) | IC50 [3] [µM] | Translation inhibitory activity on HCV IRES-Luc RNA ([3]; 30 and 60 μM (FIG. 3C) or 15, 30 and 60 μM (FIG. 5A, 5B)) | Inhibition of capped-Luciferase RNA translation (cap-dependent) [4] | Inhibition of IRES mediated translation of hepatitis A virus [5] | Inhibition of Polio virus IRES function [6] | Inhibition of HCV IRES (Fluc) vs cap dependent (Rluc) translation of bicistronic RNA [7]
1 | RRRRRRKYKETDL [Arg-LaR2C-N7] | showed RNA binding activity | internalized inside Huh7 cells | up to 70% | ~50 | considerable increase in the inhibitory activity | – | – | – | – | – | –
2 | KYKETDLLILFKDDYFAKKNEERK [LaR2C] | – | – | – | – | – | 30 | – | – | – | – | –
3 | KYKETDL [LaR2C-N7] | – | – | – | – | – | ~40 | only slightly weaker than the 24-mer peptide | did not show significant inhibition | failed to inhibit | significant inhibition | selective inhibition of HCV IRES mediated translation
